Assays:
COX-2 = target: T1, COX-2 (Homo sapiens, UniProt P35354); test: COX-2 inhibition in human whole blood (LPS-induced PGE2 production); type: cell-based; conditions: PGE2 after LPS 10 μg/mL overnight, average where more than one assay, read-out: COX-2_Blood IC50 [μM] (Avg)
T1 construct: COX-2 expression is induced in mononuclear cells by treatment with lipopolysaccharide (LPS); endogenous in cells; host or cells: heparinized human whole blood (mononuclear cells, LPS-induced)
T1 sequence (P35354 18-604): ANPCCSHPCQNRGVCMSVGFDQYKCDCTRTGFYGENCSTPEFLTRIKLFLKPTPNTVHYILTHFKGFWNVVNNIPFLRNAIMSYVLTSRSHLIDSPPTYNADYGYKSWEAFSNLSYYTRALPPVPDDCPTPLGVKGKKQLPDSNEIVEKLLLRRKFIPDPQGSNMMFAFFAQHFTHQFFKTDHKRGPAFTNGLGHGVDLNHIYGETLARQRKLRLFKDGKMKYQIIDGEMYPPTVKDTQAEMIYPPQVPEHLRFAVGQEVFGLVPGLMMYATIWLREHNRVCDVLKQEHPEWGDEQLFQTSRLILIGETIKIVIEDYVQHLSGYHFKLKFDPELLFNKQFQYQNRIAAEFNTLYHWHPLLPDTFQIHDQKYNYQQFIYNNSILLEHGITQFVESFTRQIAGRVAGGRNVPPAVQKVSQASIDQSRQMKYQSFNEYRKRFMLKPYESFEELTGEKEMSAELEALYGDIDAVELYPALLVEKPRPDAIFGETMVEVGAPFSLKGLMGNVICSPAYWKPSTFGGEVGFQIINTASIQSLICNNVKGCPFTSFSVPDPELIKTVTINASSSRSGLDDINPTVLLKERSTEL
Description: (§1) In vitro COX-1 and COX-2 inhibition is also determined in human whole blood where COX-1 is constitutively expressed in platelets and COX-2 expression is induced in mononuclear cells by treatment with lipopolysaccharide (LPS) (10 μg/mL). For this assay heparinized human blood is divided into two aliquots: one for measuring TxB2 production (a surrogate indicator of COX-1 activity) and a second for measuring PGE2 production (a surrogate for COX-2 activity). The blood samples are pretreated with test compounds for one hour before stimulation. Compounds are tested in a final concentration range from 0.1 nM to 300 μM using half log increases in concentrations. To measure inhibition of thromboxane B2 (TxB2) generation, A23187 (50 μM) is added, and the blood incubated for one hour. PGE2 production is measured after the addition of LPS (10 μg/mL) followed by overnight incubation. After incubation with A23187 or LPS the samples are centrifuged at 250×g for 10 minutes at 4° C. to collect serum. The amounts PGE2 and TxB2 present in the serum are measured using a chemiluminesence enzyme immunoassay from Assay Designs Inc. (Ann Arbor, Mich.). The levels of prostaglandin in each sample are normalized to the percent inhibition caused by each concentration of the test compound. The percent inhibition data for each donor is pooled and fitted to a 4-parameter logistic function using a regression.

COX-1 = target: T2, COX-1 (Homo sapiens, UniProt P23219); test: COX-1 inhibition in human whole blood (A23187-stimulated TxB2 production); type: cell-based; conditions: TxB2 after A23187 50 μM 1 h, average where more than one assay, read-out: COX-1_Blood IC50 [μM] (Avg)
T2 construct: COX-1 is constitutively expressed in platelets; endogenous in cells; host or cells: heparinized human whole blood (platelets, A23187-stimulated)
T2 sequence (P23219 24-599): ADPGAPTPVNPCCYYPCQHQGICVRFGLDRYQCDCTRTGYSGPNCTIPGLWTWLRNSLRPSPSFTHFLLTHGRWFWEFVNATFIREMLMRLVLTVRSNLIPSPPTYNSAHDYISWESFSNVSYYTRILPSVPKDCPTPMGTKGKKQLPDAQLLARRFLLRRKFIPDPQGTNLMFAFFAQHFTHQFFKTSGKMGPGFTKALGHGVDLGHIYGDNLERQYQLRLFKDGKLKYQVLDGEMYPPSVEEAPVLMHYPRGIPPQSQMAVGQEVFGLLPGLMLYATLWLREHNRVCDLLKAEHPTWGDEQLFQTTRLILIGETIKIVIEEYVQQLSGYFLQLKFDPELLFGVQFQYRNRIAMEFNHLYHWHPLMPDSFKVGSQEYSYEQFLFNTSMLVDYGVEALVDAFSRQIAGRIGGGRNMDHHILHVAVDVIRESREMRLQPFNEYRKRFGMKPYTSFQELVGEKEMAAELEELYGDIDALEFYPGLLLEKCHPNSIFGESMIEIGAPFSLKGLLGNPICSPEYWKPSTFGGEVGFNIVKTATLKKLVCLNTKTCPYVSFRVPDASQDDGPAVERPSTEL
Description: as §1

Row | Structure (SMILES) | IC50 (COX-2) | IC50 (COX-1)
1 | CCc1ccc(Nc2ccc(C)c(C(F)(F)F)c2F)c(CC(=O)O)c1 [Example 5a, 5-Ethyl-2-(2′-fluoro-4′-methyl-3′-trifluoromethylanilino)phenylacetic acid] | 0.1 µM | 155 µM
2 | Cc1ccc(Nc2ccc(Cl)c(C)c2Cl)c(CC(=O)O)c1 [Example 5e, 5-Methyl-2-(2′,4′-dichloro-3′-methylanilino)phenylacetic acid] | 0.073 µM | 126 µM

Other lines, results leading:

Row | IC50 (COX-2) | IC50 (COX-1) | Structure (SMILES)
3 | 0.295 µM | 129 µM | Cc1ccc(Nc2ccc(Cl)c(C)c2F)c(CC(=O)O)c1 [Example 5i, 5-Methyl-2-(2′-fluoro-4′-chloro-3′-methylanilino)phenylacetic acid]
4 | 0.165 µM | 183 µM | CCc1c(Cl)ccc(Nc2ccc(C)cc2CC(=O)O)c1F [Example 5k, 5-Methyl-2-(2′-fluoro-4′-chloro-3′-ethylanilino)phenylacetic acid]
5 | 0.17 µM | 127 µM | CCc1ccc(Nc2ccc(Cl)c(C(C)C)c2F)c(CC(=O)O)c1 [Example 5m, 5-Ethyl-2-(2′-fluoro-4′-chloro-3′-isopropylanilino)phenylacetic acid]
